Measurements as given in US4820694A, “Modifications of 3-O-demethylmycinose in macrocin and lactenocin” (priority 1986, dated 1989).
≈ marks a conversion by molar mass, not a printed value. Like-named read-outs stand apart in the source and are kept apart here.

Tests used:
Escherichia coli EC14 = experiment: standard agar-dilution MIC assay; format: cell-based
Experimental: (§1) The MIC's in Table III were determined by standard agar-dilution assays. The MIC's in Table IV were obtained using conventional brothdilution microtiter tests.

[1] = system: Haemophilus influenzae 76; experiment: standard agar-dilution MIC assay; format: cell-based; conditions: Haemophilus influenzae, 76
Experimental: as §1

[2] = system: Haemophilus influenzae C.L.; experiment: standard agar-dilution MIC assay; format: cell-based; conditions: Haemophilus influenzae
Experimental: as §1

[3] = system: Klebsiella pneumoniae X68; experiment: standard agar-dilution MIC assay; format: cell-based; conditions: Klebsiella pneumoniae, X68
Experimental: as §1

[4] = system: Pseudomonas aeruginosa X239; experiment: standard agar-dilution MIC assay; format: cell-based; conditions: Pseudomonas aeruginosa, X239
Experimental: as §1

[5] = system: Staphylococcus aureus V41; experiment: standard agar-dilution MIC assay; format: cell-based; conditions: Staphylococcus aureus, V41
Experimental: as §1

[6] = system: Staphylococcus aureus X1.1; experiment: standard agar-dilution MIC assay; format: cell-based; conditions: Staphylococcus aureus, X1.1
Experimental: as §1

[7] = system: Staphylococcus aureus X400; experiment: standard agar-dilution MIC assay; format: cell-based; conditions: Staphylococcus aureus, X400
Experimental: as §1

[8] = system: Staphylococcus epidermidis EP12; experiment: standard agar-dilution MIC assay; format: cell-based
Experimental: as §1

[9] = system: Staphylococcus epidermidis EPI1; experiment: standard agar-dilution MIC assay; format: cell-based; conditions: Staphylococcus epidermidis, EPI1
Experimental: as §1

[10] = system: Streptococcus Group D 9960; experiment: standard agar-dilution MIC assay; format: cell-based; conditions: GROUPD9960, read-out: MIC
Experimental: as §1

[11] = system: Streptococcus Group D X66; experiment: standard agar-dilution MIC assay; format: cell-based; conditions: read-out: MIC
Experimental: as §1

[12] = system: Streptococcus pyogenes C203; experiment: standard agar-dilution MIC assay; format: cell-based; conditions: Streptococcus pyogenes, C203
Experimental: as §1

[13] = system: Staphylococcus aureus S13E; experiment: microbe, parasite or virus in culture; format: cell-based; conditions: Staphylococcus aureus, S13E
Experimental: as §1

[14] = system: Streptococcus pneumoniae Park I; experiment: microbe, parasite or virus in culture; format: cell-based; conditions: Streptococcus pneumoniae
Experimental: as §1

[15] = system: Bordetella bronchiseptica; experiment: broth-dilution microtiter MIC test; format: cell-based; conditions: Bordetella bronchiseptica
Experimental: as §1

[16] = system: Mycoplasma gallisepticum 15E; experiment: broth-dilution microtiter MIC test; format: cell-based; conditions: Mycoplasmoides gallisepticum, 15E
Experimental: as §1

[17] = system: Mycoplasma gallisepticum 29C; experiment: broth-dilution microtiter MIC test; format: cell-based; conditions: Mycoplasmoides gallisepticum, 29C
Experimental: as §1

[18] = system: Mycoplasma gallisepticum 36H; experiment: broth-dilution microtiter MIC test; format: cell-based; conditions: Mycoplasmoides gallisepticum, 36H
Experimental: as §1

Mycoplasma hyorhinis 29E = experiment: broth-dilution microtiter MIC test; format: cell-based; conditions: Mycoplasma, 29E
Experimental: as §1

[19] = system: Pasteurella hemolytica 22C; experiment: broth-dilution microtiter MIC test; format: cell-based; conditions: Pasteurella, 22C
Experimental: as §1

[20] = system: Pasteurella hemolytica 23C; experiment: broth-dilution microtiter MIC test; format: cell-based; conditions: Pasteurella, 23C
Experimental: as §1

[21] = system: Pasteurella hemolytica 41D; experiment: broth-dilution microtiter MIC test; format: cell-based; conditions: Pasteurella, 41D
Experimental: as §1

[22] = system: Pasteurella multocida 17E; experiment: broth-dilution microtiter MIC test; format: cell-based; conditions: Pasteurella multocida, 17E
Experimental: as §1

[23] = system: Pasteurella multocida 22A; experiment: broth-dilution microtiter MIC test; format: cell-based; conditions: Pasteurella multocida, 22A
Experimental: as §1

[24] = system: Pasteurella multocida 40G; experiment: broth-dilution microtiter MIC test; format: cell-based; conditions: Pasteurella multocida, 40G
Experimental: as §1

[25] = system: Pasteurella multocida 60A; experiment: broth-dilution microtiter MIC test; format: cell-based; conditions: Pasteurella multocida, 60A
Experimental: as §1

[26] = system: Pasteurella multocida 68C; experiment: broth-dilution microtiter MIC test; format: cell-based; conditions: Pasteurella multocida, 68C
Experimental: as §1

[27] = system: Staphylococcus aureus 19C; experiment: broth-dilution microtiter MIC test; format: cell-based; conditions: Staphylococcus aureus, 19C
Experimental: as §1

Streptococcus sp. 19F = experiment: broth-dilution microtiter MIC test; format: cell-based; conditions: Streptococcus, SP.19F
Experimental: as §1

Pasteurella multocida = Pasteurella multocida infection in one-day-old chicks; format: in vivo; conditions: subcutaneously, 30 mg/kg × 2, 1 and 4 hours post-challenge
Experimental: Some of the formula 1 compounds have also shown in vivo antibacterial activity against infections induced by Gram-negative bacteria. Table VI summarizes the results of tests in which illustrative compounds were evaluated against a Pasteurella infection in one-day-old chicks. The compounds were administered by subcutaneous injection at a dosage of 30 mg/kg, 1 and 4 hours post-challenge of the chicks with Pasteurella multocida (0.1 ml of a 10^-4 dilution of a twenty-hour tryptose broth culture of an avian P. multocida given subcutaneously). In these tests, unless indicated otherwise, all non-medicated infected chicks died within 24 hours of Pasteurella challenge.
^a Administered subcutaneously; 30 mg/kg × 2

Mycoplasma synoviae 40A = experiment: broth-dilution microtiter MIC test; format: cell-based; conditions: Mycoplasmopsis synoviae, 40A
Experimental: as §1

[28] = system: Streptococcus pyogenes C203; experiment: protection of mice experimentally infected with S. pyogenes C203; format: in vivo; conditions: C203, sc, Subcutaneous, mice, mg/kg × 2, doses given 1 and 4 hours postinfection, read-out: ED50
Method in brief: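 Mice experimentally infected with S. pyogenes C203 got two doses of test compound, at 1 and 4 h postinfection. The ED50 is the dose in mg/kg (per dose, given twice) that protected 50% of the animals.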

Structure (SMILES): CCC1OC(=O)CC(O)C(C)C(OC2OC(C)C(OC3CC(C)(O)C(O)C(C)O3)C(N(C)C)C2OC(C)=O)C(CC=O)CC(C)C(=O)C=CC(C)=CC1COC1OC(C)C(OC(=O)Cc2ccccc2)C(O)C1OC (centres unmarked) [Compound 9, 2'-O-Acetyl-4'"-O-phenylacetyl-macrocin]
- MIC (Escherichia coli EC14): > 128 µg/mL
- MIC [1]: 32 µg/mL (≈ 30.1 µM)
- MIC [2]: 32 µg/mL (≈ 30.1 µM)
- MIC [3]: > 128 µg/mL
- MIC [4]: > 128 µg/mL
- MIC [5]: 1 µg/mL (≈ 0.941 µM)
- MIC [6]: 1 µg/mL (≈ 0.941 µM)
- MIC [7]: 2 µg/mL (≈ 1.88 µM)
- MIC [8]: 2 µg/mL (≈ 1.88 µM)
- MIC [9]: 2 µg/mL (≈ 1.88 µM)
- MIC [10]: 0.5 µg/mL (≈ 0.471 µM)
- MIC [11]: 1 µg/mL (≈ 0.941 µM)
- MIC [12]: 0.5 µg/mL (≈ 0.471 µM)
- MIC [13]: 2 µg/mL (≈ 1.88 µM)
- MIC [14]: 0.25 µg/mL (≈ 0.235 µM)
- MIC [15]: > 50 µg/mL
- MIC [16]: 12.5 µg/mL (≈ 11.8 µM)
- MIC [17]: 0.78 µg/mL (≈ 0.734 µM)
- MIC [18]: 12.5 µg/mL (≈ 11.8 µM)
- MIC (Mycoplasma hyorhinis 29E): 1.56 µg/mL (≈ 1.47 µM)
- MIC [19]: > 50 µg/mL
- MIC [20]: > 50 µg/mL
- MIC [21]: > 50 µg/mL
- MIC [22]: > 50 µg/mL
- MIC [23]: > 50 µg/mL
- MIC [24]: > 50 µg/mL
- MIC [25]: > 50 µg/mL
- MIC [26]: > 50 µg/mL
- MIC [27]: 3.12 µg/mL (≈ 2.94 µM)
- MIC (Streptococcus sp. 19F): 1.56 µg/mL (≈ 1.47 µM)
- Number of Deaths/Number Treated (Pasteurella multocida): 10/10

Structure (SMILES): CCC1OC(=O)CC(O)C(C)C(OC2OC(C)C(O)C(N(C)C)C2OC(C)=O)C(CC=O)CC(C)C(=O)C=CC(C)=CC1COC1OC(C)C(OC(C)=O)C(O)C1OC (centres unmarked) [Compound 21, 2',4"-Di-O-acetyl-lactenocin]
- MIC (Escherichia coli EC14; agar-dilution, read-out: MIC): > 128 µg/mL
- MIC ([3]; agar-dilution, read-out: MIC): > 128 µg/mL
- MIC ([4]; agar-dilution, read-out: MIC): > 128 µg/mL
- MIC [5]: 4 µg/mL (≈ 4.75 µM)
- MIC [6]: 2 µg/mL (≈ 2.38 µM)
- MIC [7]: 8 µg/mL (≈ 9.5 µM)
- MIC [8]: 4 µg/mL (≈ 4.75 µM)
- MIC [9]: 2 µg/mL (≈ 2.38 µM)
- MIC [10]: 4 µg/mL (≈ 4.75 µM)
- MIC [11]: 4 µg/mL (≈ 4.75 µM)
- MIC [12]: 1 µg/mL (≈ 1.19 µM)
- MIC [13]: 4 µg/mL (≈ 4.75 µM)
- MIC [14]: 1 µg/mL (≈ 1.19 µM)
- MIC ([15]; broth-dilution microtiter, read-out: MIC): > 50 µg/mL
- MIC [16]: 50 µg/mL (≈ 59.4 µM)
- MIC [17]: 3.12 µg/mL (≈ 3.71 µM)
- MIC [18]: 50 µg/mL (≈ 59.4 µM)
- MIC (Mycoplasma hyorhinis 29E): 6.25 µg/mL (≈ 7.42 µM)
- MIC (Mycoplasma synoviae 40A): 3.12 µg/mL (≈ 3.71 µM)
- MIC [19]: 50 µg/mL (≈ 59.4 µM)
- MIC [20]: 50 µg/mL (≈ 59.4 µM)
- MIC [21]: 50 µg/mL (≈ 59.4 µM)
- MIC [22]: 12.5 µg/mL (≈ 14.8 µM)
- MIC [23]: 12.5 µg/mL (≈ 14.8 µM)
- MIC [24]: 12.5 µg/mL (≈ 14.8 µM)
- MIC [25]: 12.5 µg/mL (≈ 14.8 µM)
- MIC [26]: 12.5 µg/mL (≈ 14.8 µM)
- MIC [27]: 3.12 µg/mL (≈ 3.71 µM)
- MIC (Streptococcus sp. 19F): 1.56 µg/mL (≈ 1.85 µM)
- ED50 [28]: 5.5 mg/kg
- Number of Deaths/Number Treated (Pasteurella multocida): 3/10
